The results in this text go back to ChEMBL document CHEMBL4145686, “Discovery of a Potent and Selective Steroidal Glucocorticoid Receptor Antagonist (ORIC-101)” (J Med Chem, 2018).

The target of series [1] is T1, Glucocorticoid receptor (Homo sapiens, UniProt P04150).
T1 sequence (P04150 whole entry): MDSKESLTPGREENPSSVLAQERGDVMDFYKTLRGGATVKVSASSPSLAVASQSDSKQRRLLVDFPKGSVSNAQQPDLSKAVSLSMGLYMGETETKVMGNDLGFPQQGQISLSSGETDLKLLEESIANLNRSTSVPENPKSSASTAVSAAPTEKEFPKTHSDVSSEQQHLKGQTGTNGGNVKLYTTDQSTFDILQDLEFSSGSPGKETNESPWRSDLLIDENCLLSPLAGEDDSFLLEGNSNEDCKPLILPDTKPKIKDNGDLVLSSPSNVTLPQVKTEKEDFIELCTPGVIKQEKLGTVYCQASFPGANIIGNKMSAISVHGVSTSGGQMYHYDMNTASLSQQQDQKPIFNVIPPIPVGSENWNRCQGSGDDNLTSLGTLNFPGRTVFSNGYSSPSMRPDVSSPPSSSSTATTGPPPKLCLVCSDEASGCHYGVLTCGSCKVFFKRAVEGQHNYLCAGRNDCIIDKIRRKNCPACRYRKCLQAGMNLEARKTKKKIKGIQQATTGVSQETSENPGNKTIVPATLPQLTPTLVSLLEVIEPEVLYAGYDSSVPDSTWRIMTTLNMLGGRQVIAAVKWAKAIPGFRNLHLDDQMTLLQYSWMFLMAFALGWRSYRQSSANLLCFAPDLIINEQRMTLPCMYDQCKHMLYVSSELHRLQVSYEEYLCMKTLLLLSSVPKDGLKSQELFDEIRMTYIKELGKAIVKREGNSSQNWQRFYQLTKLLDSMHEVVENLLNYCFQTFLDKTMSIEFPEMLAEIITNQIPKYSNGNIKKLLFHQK
The series can be described thus: Agonist activity at human GR expressed in CHO-K1 cells incubated for 20 hrs by luciferase reporter gene assay. Format: cell-based. A general note: A reporter such as luciferase makes a cellular process visible.

For series [2], the target named is T2, glucocorticoid receptor (GR) (Homo sapiens, UniProt P04150).
T2 sequence (P04150 whole entry): T1 sequence (P04150 whole entry)
Briefly: Agonist activity at human GR expressed in CHO-K1 cells incubated for 20 hrs by luciferase reporter gene assay relative to dexamethasone. The conditions noted are these: CHO-K1 cells expressing human GR. Format: cell-based.

Series [3] has as its target T3, Androgen receptor (Homo sapiens, UniProt P10275).
T3 sequence (P10275 whole entry): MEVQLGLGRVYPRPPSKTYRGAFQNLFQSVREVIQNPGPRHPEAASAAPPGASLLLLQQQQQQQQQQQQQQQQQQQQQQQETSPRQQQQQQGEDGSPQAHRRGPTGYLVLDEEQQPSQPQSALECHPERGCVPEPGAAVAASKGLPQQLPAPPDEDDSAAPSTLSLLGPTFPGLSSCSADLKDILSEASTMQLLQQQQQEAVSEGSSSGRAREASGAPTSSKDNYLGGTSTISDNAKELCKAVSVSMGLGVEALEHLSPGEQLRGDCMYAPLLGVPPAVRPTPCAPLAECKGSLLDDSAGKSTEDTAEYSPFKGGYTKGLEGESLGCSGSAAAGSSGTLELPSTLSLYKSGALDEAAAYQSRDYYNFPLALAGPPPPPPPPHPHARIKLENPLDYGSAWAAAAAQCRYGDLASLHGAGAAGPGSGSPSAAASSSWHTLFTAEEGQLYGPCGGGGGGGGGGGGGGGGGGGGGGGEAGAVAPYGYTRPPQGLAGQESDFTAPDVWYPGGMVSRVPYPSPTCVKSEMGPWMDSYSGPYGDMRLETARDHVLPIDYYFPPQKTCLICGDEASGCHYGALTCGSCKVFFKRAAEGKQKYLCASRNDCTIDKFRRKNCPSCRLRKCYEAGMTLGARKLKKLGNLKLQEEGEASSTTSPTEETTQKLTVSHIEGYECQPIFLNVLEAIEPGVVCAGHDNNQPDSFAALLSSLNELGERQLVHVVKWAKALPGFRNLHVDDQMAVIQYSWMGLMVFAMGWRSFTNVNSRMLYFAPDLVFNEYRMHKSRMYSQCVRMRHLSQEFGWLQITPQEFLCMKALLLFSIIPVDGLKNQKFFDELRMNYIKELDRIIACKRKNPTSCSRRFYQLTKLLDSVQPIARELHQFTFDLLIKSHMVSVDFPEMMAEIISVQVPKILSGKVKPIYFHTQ
The series can be described thus: Agonist activity at AR (unknown origin) expressed in human LNCaP cells incubated for 20 hrs by luciferase reporter gene assay. Format: cell-based.

The target in series [4] is T3, Androgen receptor. The series can be described thus: Antagonist activity at AR (unknown origin) expressed in human LNCaP cells assessed as reduction in R1881-induced response incubated for 20 hrs by luciferase reporter gene assay. It is filed as cell-based.
The target in series [5] is T3, Androgen receptor. Briefly: Agonist activity at AR in human LNAR cells assessed as increase in PSA gene expression at 100 nM incubated for 24 hrs by RT-qPCR method. Format: cell-based. The conditions noted are these: 0.1 µM.
Series [6] has as its target T3, Androgen receptor. Briefly: Agonist activity at AR in human LNAR cells assessed as increase in TMPRSS2 gene expression at 100 nM incubated for 24 hrs by RT-qPCR method. Format: cell-based. The conditions noted are these: 0.1 µM. For orientation: Real-time PCR tracks product formation cycle by cycle.
Series [7] is described as follows: Oral bioavailability in rat at 5 mg/kg. It is filed as ADME, organism-based. The conditions noted are these: in vivo.
Series [8] in a line: AUC in rat at 5 mg/kg, po. It is filed as ADME, organism-based. The settings on record: in vivo.
Series [9] is described as follows: Unbound fraction in human plasma. It is filed as ADME, cell-free.
In the next series the target is T4, Cytochrome P450 2C8 (Homo sapiens, UniProt P10632).
T4 sequence (P10632 whole entry): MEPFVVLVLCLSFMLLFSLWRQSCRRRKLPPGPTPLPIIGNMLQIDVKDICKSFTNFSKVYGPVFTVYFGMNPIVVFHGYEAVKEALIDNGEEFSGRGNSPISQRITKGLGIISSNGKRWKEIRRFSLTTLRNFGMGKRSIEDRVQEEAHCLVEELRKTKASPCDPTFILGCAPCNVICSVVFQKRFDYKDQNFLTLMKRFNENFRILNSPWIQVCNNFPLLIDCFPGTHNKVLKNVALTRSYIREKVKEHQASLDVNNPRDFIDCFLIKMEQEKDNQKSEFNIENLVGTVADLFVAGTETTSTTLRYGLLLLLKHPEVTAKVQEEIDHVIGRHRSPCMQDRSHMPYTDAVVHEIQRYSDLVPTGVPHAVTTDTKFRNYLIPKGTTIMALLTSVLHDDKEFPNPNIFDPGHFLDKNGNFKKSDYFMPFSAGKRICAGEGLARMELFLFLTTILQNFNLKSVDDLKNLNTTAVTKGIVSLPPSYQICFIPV
Briefly: Inhibition of CYP2C8 (unknown origin) using […] as substrate. It is filed as ADME.

Series [10] concerns the target T1, Glucocorticoid receptor. Briefly: Antagonist activity at GR in human PBMC assessed as reduction in dexamethasone-induced GILZ gene expression incubated for 6 hrs by RT-qPCR method. It is filed as cell-based.
Series [11] can be described thus: Antagonist activity at GR in monkey PBMC assessed as reduction in dexamethasone-induced GILZ gene expression incubated for 6 hrs by RT-qPCR method. It is filed as cell-based. The settings on record: Macaca mulatta.

Broadly, the EC50 is the concentration giving half of the maximal effect. Usually Emax stands for the maximal effect, on the per cent scale that the assay sets. As a reminder, the IC50 is the concentration that inhibits the measured activity by half. A word on the bioavailability: it is dose-corrected exposure relative to a reference, in per cent. One may read the AUC as concentration integrated over time. For orientation: fraction unbound means free concentration divided by total concentration. As for `CC(C)N(C)c1ccc([C@H]2C[C@@]3(C)[C@@H](CC[C@@]3(O)C#CC(C)(C)C)[C@@H]3CCC4=CC(=O)CC[C@@H]4[C@H]32)cc1`, the EC50 on Glucocorticoid receptor [1] and at Androgen receptor [3] was greater than 2.5 µM throughout. In addition, in series [2], the Emax at 20 h was determined as 2.3%. In addition, the IC50 on Androgen receptor [4] is 0.484 µM; against Cytochrome P450 2C8 it was greater than 10 µM; at Glucocorticoid receptor [10], 0.0249 µM; in series [11], 0.0149 µM. Besides, the Activity result on Androgen receptor [5] and on Androgen receptor [6] was “Not Active” throughout. The compound also registered a bioavailability in series [7] of 24%. Moreover, the AUC in series [8] came to 0.635 µg·h/mL. In addition, in series [9], the fraction unbound was 0.14.
